Holding throughout (test): NCI tumour cell line growth inhibition, 48 h
Experiment [1] deals with DU-145 prostate.
For experiment [2], the system named is HS 578T breast.
Experiment [3] concerns T-47D breast.
Experiment [4] relates to MDA-N.

The structures appear in SMILES notation.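 Cultured in 96-well plates, cells were exposed to test compound for 48 hours across five concentrations. GI50: concentration for 50% inhibition of growth. The concentration for full growth arrest is given as TGI.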 Some results are limits rather than exact numbers.

With `COc1cc(/C=N/O)nc(-c2ccccn2)c1`, the GI50 in experiment [1] is 0.4 µM; in experiment [2], 3.76 µM; in experiment [3] it was 0.465 µM. For the same compound, the values for the TGI in experiment [1], in experiment [2] and in experiment [3] were more than 75.3 µM, more than 100 µM and more than 100 µM, respectively.

Consider `CC1CCC(C#N)(NOC2=NCCN2)CC1` (configuration not stated), for which, in experiment [1], the GI50 is 39.9 µM and the TGI was more than 100 µM. In addition, in experiment [2], the GI50 was more than 100 µM and the TGI is more than 100 µM.

On to `Cc1cccc2cc3ccc4ccccc4c3cc12`, for which the TGI in experiment [1], in experiment [2], in experiment [4] and in experiment [3] was more than 100 µM each time.

Turning to `COc1ccc(Cn2cc3c(c2-c2ccccc2)CCc2cncnc2-3)cc1`, the GI50 is 14.2 µM in experiment [1], 1.58 µM in experiment [2] and 3.47 µM in experiment [3]. Besides, the values for the TGI in experiment [1], in experiment [2] and in experiment [3] were 33.7 µM, 6.51 µM and 27 µM, respectively.

For `CC(=O)C1C(=O)C(=O)N(c2ccc([N+](=O)[O-])cc2Cl)C1=O` (configuration not stated), the TGI in experiment [1], in experiment [2] and in experiment [4] was more than 100 µM each time.

Consider `c1cc(C2N3CCCN2CC3)ccn1` (configuration not stated), for which the TGI in experiment [1] was more than 100 µM; in experiment [2], 67.7 µM; in experiment [4], more than 100 µM; in experiment [3], more than 100 µM.

With `Cc1ccc(C(=O)Nc2ccccc2C(=O)N/N=C(\c2ccccc2)c2ccccn2)cc1`, the results for the GI50 in experiment [1], in experiment [2] and in experiment [3] were 0.434 µM, 9.13 µM and 0.493 µM, respectively. For the same compound, the TGI in experiment [1], in experiment [2] and in experiment [3] was more than 100 µM in each case.

With `c1cc(-c2cnn3nc(N4CCOCC4)ccc23)nc(NC2CC2)n1`, the GI50 in experiment [1] is 8.66 µM; in experiment [2] it was 8.12 µM; in experiment [3], 8.08 µM. Further, the TGI is more than 25 µM in experiment [1], more than 22.8 µM in experiment [2] and more than 25 µM in experiment [3].

With `C#CCOc1cccc(Nc2ncnc3c2ncn3C2CCN(C(=O)CCl)C2)c1` (configuration not stated), the GI50 in experiment [1] is 19.8 µM; in experiment [2], 24.7 µM. Besides, the TGI was 37.5 µM in experiment [1] and 91.5 µM in experiment [2].

As for `COc1cc2c(cc1-c1c(C)noc1C)ncc1[nH]c(=O)n([C@H](C)c3ccccn3)c12`, the figures for the GI50 in experiment [1], in experiment [2] and in experiment [3] were 17.3 µM, 0.295 µM and 1.22 µM, respectively. Besides, the TGI in experiment [1], in experiment [2] and in experiment [3] was more than 100 µM each time.

As for `OCCCCC#Cc1ccccc1C#Cc1cccs1`, the GI50 in experiment [1] was 13 µM; in experiment [2] it was 14.9 µM; in experiment [3] it was 1.18 µM. Moreover, the TGI in experiment [1] came out at 25.7 µM; in experiment [2] it was 39.1 µM; in experiment [3] it was 23.2 µM.

Regarding `C=C(CN(CCN1CCOCC1)CC(=C)c1ccc(C(=O)Nc2ccccc2N)cc1)c1ccc(C(=O)Nc2ccccc2N)cc1`, the values for the GI50 in experiment [1], in experiment [2] and in experiment [3] were 6.88 µM, 5.55 µM and 8.33 µM, respectively. In addition, the TGI was 15.7 µM in experiment [1], 42.8 µM in experiment [2] and 47.6 µM in experiment [3].

With `Cc1[nH]ccc2cc3nc4ccccc4c3cc12`, the GI50 in experiment [1] was 2.18 µM; in experiment [2] it was 3.26 µM; in experiment [3] it was 3.62 µM. Moreover, the results for the TGI in experiment [1], in experiment [2] and in experiment [3] were 5.83 µM, 18 µM and 18.9 µM, respectively.

Regarding `COc1cc(C(=O)/C=C/c2c(-c3cccs3)nc3ccccn23)cc(OC)c1OC`, the GI50 in experiment [1] was 1.9 µM; in experiment [3], 1.72 µM. The TGI in experiment [1] worked out at 4.81 µM; in experiment [3], 6.79 µM.

On to `CCN1CCN(c2cc(C)nc(NCc3cc(Nc4ccnc5cc(Cl)ccc45)ccc3F)n2)CC1`, for which the GI50 is 2.74 µM in experiment [1], 5.34 µM in experiment [2] and 1.42 µM in experiment [3]. The TGI in experiment [1] amounted to 42.3 µM; in experiment [2] it was 50.6 µM; in experiment [3], 4.31 µM.

With `CCCCCCCCCCC(CN(CC)CC)C(O)c1ccccc1` (configuration not stated), the GI50 was 1.89 µM in experiment [1], 1.75 µM in experiment [2] and 1.84 µM in experiment [3]. Besides, the values for the TGI in experiment [1], in experiment [2] and in experiment [3] were 3.49 µM, 4.07 µM and 4.31 µM, respectively.

Turning to `COC(=O)C1=C2CO[C@@H]3C[C@H]4C(C)(C)CCC[C@]4(C)C(=CC1)[C@]23C`, the GI50 in experiment [1] was 44 µM; in experiment [2], 47 µM; in experiment [3] it was 41.5 µM. The TGI in experiment [1], in experiment [2] and in experiment [3] was more than 100 µM in each case.

In the case of `COc1ccc(-c2cc3nccn3c(Nc3ncccc3C(N)=O)n2)cc1OC`, the GI50 is 2 µM in experiment [1], more than 31.8 µM in experiment [2] and more than 100 µM in experiment [3]. For the same compound, the TGI in experiment [1], in experiment [2] and in experiment [3] was more than 100 µM throughout.

For the compound `NCCCn1c2c(c3ccc([N+](=O)[O-])cc3c1=O)C(=O)c1cc(Cl)ccc1-2`, the GI50 is less than 0.01 µM in experiment [1], 1.11 µM in experiment [2] and less than 0.01 µM in experiment [3]. In addition, the TGI amounted to 0.115 µM in experiment [1], 2.8 µM in experiment [2] and 1.2 µM in experiment [3].

Consider `O=C(Nc1ccc([N+](=O)[O-])cc1)c1cc2ccccc2cc1O`, for which the GI50 in experiment [1] was 0.484 µM; in experiment [2], 0.618 µM; in experiment [3], 0.39 µM. Moreover, the TGI in experiment [1] was more than 100 µM; in experiment [2] it was more than 100 µM; in experiment [3], 8.89 µM.

For `C[C@@H]1CCC2[C@@H](C)[C@H](OC(=O)CCC(=O)NCCNC(=O)Cc3cc(=O)oc4cc(N(C)C)ccc34)O[C@@H]3O[C@]4(C)CC[C@@H]1C23OO4` (some centres not stated), the GI50 was 10.3 µM in experiment [1], 3.21 µM in experiment [2] and 0.862 µM in experiment [3]. Also, the TGI is 24 µM in experiment [1], more than 33.1 µM in experiment [2] and 50.2 µM in experiment [3].

With `CC1(C)CC(O)CCCCCCOc2c(CN)cccc2NC(=O)c2nc(cnc2N)-c2ccc(cc2)S1(=O)=O` (configuration not stated), in experiment [1], the GI50 is 0.0359 µM and the TGI was determined as 2.07 µM. Besides, in experiment [3], the GI50 was 1.67 µM and the TGI was found to be 4.15 µM.

Regarding `ClC1=C(Cl)C(Cl)=C(Cl)C1=Cc1ccc(Cl)cc1Cl`, the GI50 in experiment [1] was 0.718 µM; in experiment [2], 0.522 µM; in experiment [3], 0.252 µM. In addition, the TGI is 3.52 µM in experiment [1], more than 100 µM in experiment [2] and 1.3 µM in experiment [3].

With `O=C1/C(=C/c2ccc(C(F)(F)F)cc2)COc2ccc(O)cc21`, the GI50 in experiment [1] was 3.23 µM; in experiment [2] it was 2.7 µM; in experiment [3], 2.03 µM. The TGI in experiment [1] amounted to 12 µM; in experiment [3], 4.76 µM.

As for `O=C(Nn1c2c(sc1=NC1CC1)C(=O)c1ccccc1C2=O)c1cc2ccc1CCc1ccc(cc1)CC2`, the GI50 was 1.85 µM in experiment [1], 2.09 µM in experiment [2] and 2.49 µM in experiment [3]. Also, the figures for the TGI in experiment [1], in experiment [2] and in experiment [3] were 3.43 µM, 6.03 µM and 14.4 µM, respectively.

As to `CN(C)CCC(=O)NCc1c2nc3ccccc3nc2n2ccccc12`, the GI50 in experiment [1] is 12.3 µM; in experiment [2], more than 100 µM; in experiment [3] it was more than 100 µM. Moreover, the TGI in experiment [1], in experiment [2] and in experiment [3] was more than 100 µM throughout.

In the case of `Cc1cc(S(=O)(=O)Nc2nc3ccsc3c(=O)n2Cc2ccccc2)c(S)cc1Cl`, the GI50 is 34.6 µM in experiment [1], 42.3 µM in experiment [2] and 52.4 µM in experiment [3]. The TGI in experiment [1], in experiment [2] and in experiment [3] was more than 100 µM in each case.

Take `CO[C@H]1/C=C/C[C@H](C)[C@@H](C)S(=O)(=O)NC(=O)c2ccc3c(c2)N(C[C@@H]2CC[C@H]21)C[C@@]1(CCCc2cc(Cl)ccc21)CO3`: the values for the GI50 in experiment [1], in experiment [2] and in experiment [3] were 4.56 µM, 1.54 µM and 2.75 µM, respectively. Also, the TGI in experiment [1] came out at 15.3 µM; in experiment [2], 7.24 µM; in experiment [3], 10.8 µM.

With `CCOC(CN(C)C(=O)OCC(Cl)(Cl)Cl)OCC`, the TGI in experiment [1], in experiment [2] and in experiment [4] was more than 100 µM each time.

On to `CC(C)(C)n1cc(-c2ccnc(NCCCNS(=O)(=O)c3ccc(Cl)cc3)c2)c(-c2cccc(O)c2)n1`, for which the results for the GI50 in experiment [1], in experiment [2] and in experiment [3] were 2.75 µM, 1.84 µM and 1.82 µM, respectively. The TGI in experiment [1] is 7.63 µM; in experiment [2] it was 4.81 µM; in experiment [3], 5.51 µM.

On to `C=CC1=C(C)C(Cc2[nH]c(/C=c3\[nH]/c(=C/C4=NC(=O)C(C)/C4=C\C)c(C)c3CCC(=O)O)c(CCC(=O)OC)c2C)NC1=O` (configuration not stated), for which the GI50 in experiment [1] was 62.6 µM; in experiment [4] it was 25.6 µM; in experiment [3], 36.8 µM. The TGI in experiment [1] is more than 100 µM; in experiment [4], 66.7 µM; in experiment [3], more than 100 µM.

For the origin of these results see PubChem BioAssay (NCI).
